Measured values published in US5243042A, “1-thiaguanosine and process for preparing oxanosine and 1-thiaguanosine” (Hoffmann-La Roche Inc., priority 1990, dated 1993).
Values after ≈ are worked out from the molar mass of the structure shown.

Experiments:
Experiment in all cases: MIC by agar dilution method, minimal agar medium
Type in all cases: cell-based
[1] = system: E. coli 257; conditions: Escherichia coli, over-night incubation at 36° C., read-out: MIC (minimum inhibitory concentration)
Description: (§1) To avoid possible antimetabolite reversal, a minimal agar medium^2 was employed. Inoculum was grown over-night at 36° C. in minimal broth medium and diluted a hundred-fold before use. Agar plates containing a serial dilution of the compounds of formula Ia were inoculated using a Steer's replicator. Approximately 3 μL was applied per spot. MICs were recorded after over-night incubation at 36° C.
(§2) ^1 Barry, A. L., Procedure for Testing Antimicrobial Agents in Agar Media: Theoretical Considerations, p. 1-26. In Victor Lorian (Ed.), Antibiotics in Laboratory Medicine, 2nd ed. The Williams & Wilkins Co., Baltimore.
(§3) ^2 Davis, B. D.; Mingioli, E. S. J. BACTERIOL. 1950, 60, 17-28.
(§4) The minimum inhibitory concentrations of 1-thiaguanosine, the compound of formula Ia, against various bacteria were as follows: […]

[2] = system: E. coli 2721B; conditions: Escherichia coli, over-night incubation at 36° C., read-out: MIC (minimum inhibitory concentration)
Description: as §1, §2, §3, §4

[3] = system: E. coli 94; conditions: Escherichia coli, over-night incubation at 36° C., read-out: MIC (minimum inhibitory concentration)
Description: as §1, §2, §3, §4

[4] = system: E. coli ATCC 25922; conditions: Escherichia coli, ATCC25922, over-night incubation at 36° C., read-out: MIC (minimum inhibitory concentration)
Description: as §1, §2, §3, §4

[5] = system: E. coli B; conditions: Escherichia coli, over-night incubation at 36° C., read-out: MIC (minimum inhibitory concentration)
Description: as §1, §2, §3, §4

[6] = system: Prov. rettgeri ATTC 9250; conditions: Providencia rettgeri, ATTC9250, over-night incubation at 36° C., read-out: MIC (minimum inhibitory concentration)
Description: as §1, §2, §3, §4

[7] = system: S. typhimurium ATTC 13311; conditions: Salmonella enterica, over-night incubation at 36° C., read-out: MIC (minimum inhibitory concentration)
Description: as §1, §2, §3, §4

[8] = system: S. typhimurium LT-2; conditions: Salmonella enterica, over-night incubation at 36° C., read-out: MIC (minimum inhibitory concentration)
Description: as §1, §2, §3, §4

Question: How did the MIC [1] turn out when `Nc1nc2c(ncn2[C@@H]2O[C@H](CO)[C@@H](O)[C@H]2O)c(=O)s1` [1-thiaguanosine, 5-amino-3-(β-D-ribofuranosyl)imidazo[4,5-d][1,3]thiazin-7(3H)-one] was run?
Answer: The MIC was 16 µg/mL (≈ 53.3 µM).

Question: And the MIC [2]?
Answer: Its MIC is 128 µg/mL (≈ 426 µM).

Question: What about the MIC [3] of the same compound?
Answer: The MIC was 32 µg/mL (≈ 107 µM).

Question: What about the MIC [4] of the same compound?
Answer: Its MIC is 128 µg/mL (≈ 426 µM).

Question: And the MIC [5]?
Answer: The MIC was 128 µg/mL (≈ 426 µM).

Question: What about the MIC [6] of the same compound?
Answer: Its MIC is 4 µg/mL (≈ 13.3 µM).

Question: What about the MIC [7] of the same compound?
Answer: The MIC was 8 µg/mL (≈ 26.6 µM).

Question: And the MIC [8]?
Answer: The MIC was 8 µg/mL (≈ 26.6 µM).
